In patent US20250107544A1, “4-(3-OXO-2-(PENT-2-ENYL)CYCLOPENTYL) BUTANOIC ACID MIXTURES AND USES THEREOF” (Valent BioSciences LLC., priority 2023, published 2025):

Experiments:
[1] = tested on: unripened apples, Pink Lady variety; experiment: Apple coloration in Pink Lady variety (Example 2), percent red pixel area after foliar spray; assay type: in vivo; conditions: for Average % Red Pixel Area: 34 hours post spray; for % change from control: vs 0.05% Regulaid control
Protocol: (§1) To determine if the mixture provided unexpected results, the observed combined efficacy (“OCE”) was divided by the expected combined efficacy (“ECE”) wherein the ECE is calculated by the Abbott method: […]
(§2) wherein ECE is the expected combined efficacy and in which A and B are the percent change from control given by the single active ingredients. If the ratio between the OCE of the mixture and the ECE of the mixture is greater than 1, then greater than expected interactions are present in the mixture. (Gisi, Synergistic Interaction of Fungicides in Mixtures, The American Phytopathological Society, 86:11, 1273-1279,1996).
10 sets of unripened apples, Pink Lady variety, harvested three weeks before the normal harvest date, were each foliar sprayed with either 1) 0.05% Regulaid® as a control, 2) 10 ppm OPC4, 3) 100 ppm OPC4, 4) 100 ppm ACC, 5) 100 ppm jasmonic acid, 6) a mixture of 10 ppm OPC4 and 100 ppm ACC, 7) a mixture of 100 ppm OPC4 and 100 ppm ACC, 8) a mixture of 10 ppm OPC4 and 100 ppm jasmonic acid and 9) a mixture of 100 ppm OPC4 and 100 ppm jasmonic acid. 34 hours post spray application percent red pixel area (shaded) was measured. Percent red pixel area is an indication of the coloration of the apple fruit.

[2] = tested on: unripened apples, Pink Lady variety; experiment: Apple coloration in Pink Lady variety (Example 1), percent red pixel area after foliar spray; assay type: in vivo; conditions: for Average % Red Pixel Area: 34 hours post spray; for % change from control: vs 0.05% Regulaid control
Description: 10 sets of unripened apples, Pink Lady variety, harvested three weeks before the normal harvest date, were each foliar sprayed with either 1) 0.05% Regulaid® as a control, 2) 30 ppm OPC4, 3) 100 ppm OPC4, 4) 300 ppm OPC4, 5) 1,000 ppm OPC4, 6) 50 ppm ACC, 7) 50 ppm jasmonic acid, 8) a mixture of 30 ppm OPC4 and 50 ppm ACC, 9) a mixture of 100 ppm OPC4 and 50 ppm ACC, 10) a mixture of 300 ppm OPC4 and 50 ppm ACC, 11) a mixture of 1,000 ppm OPC4 and 50 ppm ACC, 12) a mixture of 30 ppm OPC4 and 50 ppm jasmonic acid, 13) a mixture of 100 ppm OPC4 and 50 ppm jasmonic acid, 14) a mixture of 300 ppm OPC4 and 50 ppm jasmonic acid, 15) a mixture of 1,000 ppm OPC4 and 50 ppm jasmonic acid. 34 hours post spray application percent red pixel area (shaded) was measured. Percent red pixel area is an indication of the coloration of the apple fruit.
as §1, §2

SMILES | Average % Red Pixel Area ([1]; 100 ppm foliar spray) [%] | % change from control ([1]; 100 ppm foliar spray) [%] | Average % Red Pixel Area ([2]; 50 ppm foliar spray) [%] | % change from control ([2]; 50 ppm foliar spray) [%] | Average % Red Pixel Area ([1]; 10 ppm foliar spray) [%] | % change from control ([1]; 10 ppm foliar spray) [%] | Average % Red Pixel Area ([2]; 30 ppm foliar spray) [%] | % change from control ([2]; 30 ppm foliar spray) [%] | Average % Red Pixel Area ([2]; 100 ppm foliar spray) [%] | % change from control ([2]; 100 ppm foliar spray) [%] | Average % Red Pixel Area ([2]; 300 ppm foliar spray) [%] | % change from control ([2]; 300 ppm foliar spray) [%] | Average % Red Pixel Area ([2]; 1000 ppm foliar spray) [%] | % change from control ([2]; 1000 ppm foliar spray) [%]
NC1(C(=O)O)CC1 [ACC, 1-amino-1-cyclopropanecarboxylic acid, reference compound] | 19.32 | −0.20 | 9.33 | 0.23 |  |  |  |  |  |  |  |  |  | 
CC/C=C\C[C@H]1C(=O)CC[C@@H]1CC(=O)O [JA, jasmonic acid, reference compound] | 49.9 | 1.06 | 39.64 | 4.22 |  |  |  |  |  |  |  |  |  | 
CCC=CCC1C(=O)CCC1CCCC(=O)O (centres unmarked) [OPC4, 4-(3-oxo-2-(pent-2-enyl)cyclopentyl) butanoic acid] | 43.59 | 0.80 |  |  | 18.85 | −0.22 | 13.37 | 0.76 | 36.02 | 3.74 | 65.59 | 7.63 | 54.35 | 6.15
